BigSolDB 2.1

CCCCOC(=O)c1ccc(O)cc1
solubility (mole fraction)
Conditions	281.05 K	291.05 K	301.05 K	311.05 K	321.05 K
in acetonitrile	0.275	0.449	0.61	0.753	0.857
in ethyl acetate	0.424	0.501	0.591	0.688	0.781
